Measured values taken from PMC10657444, “Design and evaluation of tadpole-like conformational antimicrobial peptides” (Communications Biology, 2023).
Values after ≈ are worked out from the molar mass of the structure shown. Values joined by “and” are separate entries in the source; they are usually repeats but may differ in a detail not shown here. Equal entries are not always repeated. Where two headings read alike, the source gives them in different places. Non-standard residues stand in square brackets, D forms with d. Residues, ends and D or L forms follow the SMILES beside them.

Legend:
[1] = MTT cytotoxicity assay; assay type: cell-based, human; settings: human
Description: (§1) To determine the cytotoxicity of the peptides, we used the MTT (3-(4,5)-dimethylthiahiazo (-z-y1)-3,5-di-phenytetrazoliumromide) dye reduction assay against HEK293T cells. In brief, the 100 μL of cells in 96-well plate were incubated for 24 h at 37 °C, 5% CO2, and then peptide solutions (concentrations ranging from 100 to 0.39 μM) were added and further incubated for 72 h. MTT solution (5 mg/mL) was added and further incubated for 4 h. After incubation, the precipitated MTT formazan crystal was dissolved by addition of dimethyl sulfoxide (DMSO). […]

[2] = tested on: HEK293T cells; assay: MTT cytotoxicity assay; assay type: cell-based, human; settings: for percent cell viability: HEK293T
Description: as §1

[3] = tested on: sheep red blood cells; assay: Hemolysis assay
Description: To evaluate the hemolysis effects of peptides, red blood hemolysis was performed as described with minimum modifications. Sterile defibrated sheep blood was purchased from Guangzhou Hongquan Biotechnology Co., LTD. Blood cells were adjusted to 2 × 10^9 cells/mL in phosphate-buffered saline (PBS, pH 7.4). In total, 98 μL sheep red blood cell suspension was incubated with 2 μL of peptides at different concentrations ranging from 3.13 to 100 µM. After incubation for 1 h at 37 °C, the cells were centrifuged and the absorbance of the supernatant was measured at 450 nm. The value for “zero hemolysis” was determined using sterile PBS, while 100% hemolysis was established using 1.5% (v/v) Triton X-100. Hemolysis of testing sample was calculated as the percentage of Triton X-100-induced hemolysis.

[4] = tested on: MRSA USA 300; assay type: cell-based, Staphylococcus aureus
Description: (§2) The stability of peptides in different media was assessed using the MIC assay described above. Here, the stability of HT2 and RI-HT2 in serum, salt, and different pH were analyzed using methods previously described with some modifications. For serum stability, a solution of 10% or 20% fetal bovine serum (FBS) was made by diluting fetal bovine serum with phosphate buffer saline (PBS). HT2 and RI-HT2 were added for a final concentration of 160 µg/mL of peptide in the FBS solution, and incubation 2 h. Suspension containing no peptide was considered the negative control. The MIC of HT2 and RI-HT2 against MRSA USA 300 and K. pneumoniae ATCC 700603 were measured. For the acid stability assays, the peptides were incubated with different pH values of PBS (pH = 5.5 or 6.4) at 37 °C. These peptide mixtures were then serially diluted in a 96-well plate for the evaluation of antimicrobial activity against bacterial strains. Similarly, for salt stability, the peptides were assessed for their antimicrobial activity against MRSA USA 300 and K. pneumoniae ATCC 700603 in the presence of 150 mM NaCl.

[5] = tested on: K. pneumoniae ATCC 700603; assay type: cell-based, Klebsiella pneumoniae
Description: as §2

[6] = tested on: MRSA USA 300; assay: Time-kill assay; assay type: cell-based, Staphylococcus aureus
Description: Time-kill assays were done in tubes (in 1.5 mL of LB) and antibiotics at the 1 ×, 2 ×, 4 × and 8 × MIC. Tubes were inoculated (5 × 10^6 CFU/mL) with MRSA USA 300 and K. pneumoniae ATCC 700603 and incubated at 37 °C under shaking. Serial dilutions of the cultures were plated at each desired time point (0, 1, 3, 6, and 24 h), using a multichannel pipette as follows: in line 1 of a 96-well plate, 100 µL of bacterial suspension was added, while 90 µL of 0.9% sterile saline per well was added to the other lines. At selected time points, 100 µL of bacterial suspension was transferred from the time-kill assay plate to the first line. The wells were further diluted 1 in 10 (0.9% saline) for the appropriate number of dilutions and 10 μL of each dilution was spotted in duplicate onto MH agar plates, then incubated overnight at 37°C. The colonies in each spot were counted and used to calculate the number of viable CFU/mL remaining in the original culture by considering the dilution factors.

[7] = tested on: MRSA USA 300; assay: Membrane depolarization assay, DiSC3(5); assay type: cell-based, Staphylococcus aureus
Description: MRSA USA 300 and K. pneumoniae ATCC 700603 were inoculated into 5 mL of LB and shaken at 37°C and 225 rpm to OD600 ≈ 0.5 (i.e., mid-logarithmic phase). Bacteria were collected by centrifugation at 8000 rpm for 5 min, and washed twice with assay buffer (5 mM HEPES, 20 mM glucose, 10 mM KCl, pH 7.2). Bacteria were resuspended in the assay buffer to OD595 ≈ 0.1. DiSC3(5) was added to the cells at final concentration of 0.3 µM, wrapped with aluminum foil, and incubated at 37°C, until a stable fluorescence was observed. Two microliter of compound or DMSO were transferred into 96-well black walled polystyrene plates, to which was added 98 µL per well of the dye-saturated bacterial cells to initiate the reaction. The final concentration of HT2 and RI-HT2 were 1 ×, 2 ×, 4 × and 8 × MIC. Plates were immediately read on an Envison at λex = 622 nm/ λem = 670 nm with a kinetic program (reading every 1 min for 10 min) until the maximal intensity achieved was observed.

[8] = HEK293T cells, OD450, cytotoxicity (Fig 2a), replicates

CC[C@@H](C)[C@@H](NC(=O)[C@@H](Cc1ccccc1)NC(=O)[C@@H](Cc1ccccc1)NC(=O)[C@@H](Cc1ccccc1)NC(=O)[C@H](N)Cc1ccccc1)C(=O)N[C@H](CCCNC(=N)N)C(=O)N[C@H](CCCNC(=N)N)C(=O)N[C@H](CC(C)C)C(=O)N[C@H](Cc1ccccc1)C(=O)N[C@H](CCCNC(=N)N)C(N)=O [RI-HT2] (H-[dF][dF][dF][dF][dI][dR][dR][dL][dF][dR]-NH2; N-terminus assumed)
IC50 at 72 h [1]: > 100 µM
viability at 72 h, 6.25 µM ([1]; HEK293T cells, HEK293T, 6.25 µM, read-out: OD450, cytotoxicity (Fig 2a), replicates): 90.2%
viability at 72 h, 12.5 µM ([1]; HEK293T cells, HEK293T, 12.5 µM, read-out: OD450, cytotoxicity (Fig 2a), replicates): 87.8%
viability at 72 h, 0.39 µM [1, 8]: 102%
viability at 72 h, 0.78 µM [1, 8]: 94.4%
viability at 72 h, 1.57 µM [1, 8]: 92.8%
viability at 72 h, 3.13 µM [1, 8]: 93%
viability at 72 h, 25 µM [1, 8]: 84.2%
viability at 72 h, 50 µM [1, 8]: 77.8%
viability at 72 h, 100 µM [1, 8]: 75.8%
toxicity / cytotoxicity against HEK293T cells (in words) [2]: did not present
percent cell viability ([2]; 6.25 µM): 88.3759
percent cell viability ([2]; 12.5 µM): 86.6385 and 87.1349
OD450, hemolysis (Fig 2b), replicates ([3]; 6.25 µM): 0.01607 (2×) and 0.02078 and 0.0162 (2×) and 0.02093
OD450, hemolysis (Fig 2b), replicates ([3]; 12.5 µM): 0.02038 (2×) and 0.02274 and 0.02054 (2×) and 0.02291
HC10 (concentration inducing 10% hemolysis) ([3]; red cells of sheep, 1 h): > 100.0 µM
MIC against MRSA USA 300 ([4]; USA 300): 3.13 µM (≈ 4.53 µg/mL)
MIC against MRSA USA 300 ([4]; USA 300, pH 5.5): 3.13 µM (≈ 4.53 µg/mL)
MIC against MRSA USA 300 ([4]; USA 300, pH 6.4): 3.13 µM (≈ 4.53 µg/mL)
MIC against K. pneumoniae ATCC 700603 ([5]; 150 mM NaCl): 12.5 µM (≈ 18.1 µg/mL)
MIC against K. pneumoniae ATCC 700603 ([5]; ATCC 700603): >100 µM
MIC against K. pneumoniae ATCC 700603 ([5]; Normal medium): 6.25 µM (≈ 9.05 µg/mL)
MIC against K. pneumoniae ATCC 700603 ([5]; pH 5.5): 12.5 µM (≈ 18.1 µg/mL)
MIC against K. pneumoniae ATCC 700603 ([5]; pH 6.4): 12.5 µM (≈ 18.1 µg/mL)
viable count, time-kill ([6]; 2 × MIC, 0 h): 17000000 CFU/mL and 16000000 CFU/mL
viable count, time-kill ([6]; 2 × MIC, 1 h): 18000 CFU/mL and 21000 CFU/mL and 20000 CFU/mL
viable count, time-kill ([6]; 2 × MIC, 6 h): 15000 CFU/mL and 12000 CFU/mL and 14000 CFU/mL
time to complete killing ([6]; 4 × MIC): 3 h
viable count, time-kill ([6]; 4 × MIC, 0 h): 17000000 CFU/mL and 16000000 CFU/mL
viable count, time-kill ([6]; 4 × MIC, 1 h): 1300 CFU/mL and 1200 CFU/mL
viable count, time-kill ([6]; 4 × MIC, 3 h): 0 CFU/mL
viable count, time-kill ([6]; 4 × MIC, 6 h): 0 CFU/mL
viable count, time-kill ([6]; 4 × MIC, 24 h): 0 CFU/mL
viable count, time-kill ([6]; 8 × MIC, 0 h): 17000000 CFU/mL and 16000000 CFU/mL
viable count, time-kill ([6]; 8 × MIC, 1 h): 100 CFU/mL and 200 CFU/mL
viable count, time-kill ([6]; 8 × MIC, 3 h): 0 CFU/mL
viable count, time-kill ([6]; 8 × MIC, 6 h): 0 CFU/mL
viable count, time-kill ([6]; 8 × MIC, 24 h): 0 CFU/mL
viable count, time-kill ([6]; MIC, 0 h): 17000000 CFU/mL and 16000000 CFU/mL
viable count, time-kill ([6]; MIC, 1 h): 4500000 CFU/mL and 3500000 CFU/mL and 3700000 CFU/mL
viable count, time-kill ([6]; MIC, 3 h): 2300 CFU/mL and 1800 CFU/mL and 2200 CFU/mL
viable count, time-kill ([6]; MIC, 6 h): 230000 CFU/mL and 380000 CFU/mL and 310000 CFU/mL
viable count, time-kill ([6]; MIC, 24 h): 2000000000 CFU/mL and 3400000000 CFU/mL and 3000000000 CFU/mL
concentration at which DiSC3(5) fluorescence intensity changed significantly [7]: 8 × MIC
